Where two headings read alike, the source gives them in different places.
Legend:
[1] = molecular target: T1, WT (SfTre1, S. frugiperda midgut soluble trehalase, recombinant) (Spodoptera frugiperda, UniProt Q0ZIF5); test: glucose release assay, Lineweaver-Burk slope replots; format: biochemical
T1 sequence (Q0ZIF5 24-587): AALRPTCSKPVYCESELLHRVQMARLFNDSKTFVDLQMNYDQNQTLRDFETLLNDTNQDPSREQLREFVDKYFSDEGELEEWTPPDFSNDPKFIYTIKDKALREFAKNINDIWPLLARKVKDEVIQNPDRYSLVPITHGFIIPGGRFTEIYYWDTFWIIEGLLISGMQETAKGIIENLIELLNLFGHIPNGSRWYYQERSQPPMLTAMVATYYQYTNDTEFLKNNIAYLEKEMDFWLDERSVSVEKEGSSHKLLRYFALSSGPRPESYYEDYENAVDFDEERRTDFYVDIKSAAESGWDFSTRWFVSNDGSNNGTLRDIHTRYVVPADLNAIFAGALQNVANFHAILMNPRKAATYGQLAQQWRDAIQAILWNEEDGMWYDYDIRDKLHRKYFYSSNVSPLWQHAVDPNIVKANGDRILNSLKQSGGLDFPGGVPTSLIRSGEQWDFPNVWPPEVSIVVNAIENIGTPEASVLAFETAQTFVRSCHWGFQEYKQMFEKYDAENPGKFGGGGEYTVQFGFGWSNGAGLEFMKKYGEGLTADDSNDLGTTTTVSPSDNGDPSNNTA

[2] = molecular target: T2, NCT (N- and C-terminal truncated trehalase) (Spodoptera frugiperda, UniProt Q0ZIF5, C-[…]/DEL1-102/LAST/RESIDUES/[…]); test: as above; format: biochemical
T2 sequence (Q0ZIF5 126-556): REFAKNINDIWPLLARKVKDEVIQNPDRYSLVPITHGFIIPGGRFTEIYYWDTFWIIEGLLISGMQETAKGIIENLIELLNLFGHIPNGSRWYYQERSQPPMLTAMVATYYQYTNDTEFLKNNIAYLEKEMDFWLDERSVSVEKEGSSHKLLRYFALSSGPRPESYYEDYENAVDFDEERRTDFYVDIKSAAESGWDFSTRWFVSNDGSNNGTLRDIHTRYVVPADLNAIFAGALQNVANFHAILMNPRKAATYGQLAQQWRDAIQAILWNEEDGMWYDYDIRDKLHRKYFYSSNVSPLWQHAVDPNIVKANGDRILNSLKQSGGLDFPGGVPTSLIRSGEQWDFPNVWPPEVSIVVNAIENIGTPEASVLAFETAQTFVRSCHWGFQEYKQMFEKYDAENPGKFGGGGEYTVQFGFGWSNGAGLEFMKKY

[3] = molecular target: T1, WT (SfTre1, S. frugiperda midgut soluble trehalase, recombinant); test: as above; format: biochemical; remark: listed apart in the source
[4] = molecular target: T3, NT (N-terminal truncated trehalase) (Spodoptera frugiperda, UniProt Q0ZIF5, DEL1-102); test: as above; format: biochemical
T3 sequence (Q0ZIF5 126-587): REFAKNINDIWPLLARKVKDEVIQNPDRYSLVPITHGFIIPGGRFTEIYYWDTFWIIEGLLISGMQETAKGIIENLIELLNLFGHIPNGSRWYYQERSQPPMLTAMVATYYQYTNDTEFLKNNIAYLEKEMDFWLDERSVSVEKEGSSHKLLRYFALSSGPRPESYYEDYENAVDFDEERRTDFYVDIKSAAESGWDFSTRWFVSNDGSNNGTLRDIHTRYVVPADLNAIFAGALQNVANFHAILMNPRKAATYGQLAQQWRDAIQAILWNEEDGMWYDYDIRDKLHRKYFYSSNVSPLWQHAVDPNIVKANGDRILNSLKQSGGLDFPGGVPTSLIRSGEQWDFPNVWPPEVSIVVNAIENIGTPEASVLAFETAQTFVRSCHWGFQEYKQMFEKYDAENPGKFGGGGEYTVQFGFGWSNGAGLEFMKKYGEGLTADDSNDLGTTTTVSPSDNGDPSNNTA

[5] = molecular target: T2, NCT (N- and C-terminal truncated trehalase); test: as above; format: biochemical; remark: listed apart in the source
[6] = molecular target: T4, NCT (N- and C-terminal truncated trehalase) (Spodoptera frugiperda, UniProt Q0ZIF5); test: as above; format: biochemical; conditions: read-out: Enzyme / NCT; competitive; substrate trehalose 0.2-2 mM; pH 6.0, 30 °C
T4 sequence (Q0ZIF5 126-556): T2 sequence (Q0ZIF5 126-556)

[7] = molecular target: T5, NT (N-terminal truncated trehalase) (Spodoptera frugiperda, UniProt Q0ZIF5); test: as above; format: biochemical; conditions: read-out: Enzyme / NT; competitive; substrate trehalose 0.2-2 mM; pH 6.0, 30 °C
T5 sequence (Q0ZIF5 126-587): T3 sequence (Q0ZIF5 126-587)

purified protein = substrate: OC[C@H]1O[C@H](O[C@H]2O[C@H](CO)[C@@H](O)[C@H](O)[C@H]2O)[C@H](O)[C@@H](O)[C@@H]1O; test: purified protein; conditions: pH 6.0 citrate-sodium phosphate, 30 °C

OC[C@H]1NC[C@H](O)[C@@H](O)[C@@H]1O [1-deoxynojirimycin]
Ki [1]: 1 ± 0.24 µM | Ki [2]: 0.8 ± 0.2 µM

N#C[C@H](O[C@@H]1O[C@H](CO[C@@H]2O[C@H](CO)[C@@H](O)[C@H](O)[C@H]2O)[C@@H](O)[C@H](O)[C@H]1O)c1ccccc1 [amygdalin]
Ki [3]: 280 ± 70 µM | Ki [4]: 400 ± 100 µM | Ki [5]: 490 ± 90 µM

COC1OC(CO)C(O)C(O)C1O (stereo not drawn) [methyl α-mannoside]
Ki ([1]; read-out: Enzyme / WT, competitive, substrate trehalose 0.2-2 mM, pH 6.0, 30 °C): 17000 ± 1000 µM | Ki [6]: 16000 ± 1000 µM | Ki [7]: 17000 ± 2000 µM

B1: WT (SfTre1, S. frugiperda midgut soluble trehalase, recombinant) (Spodoptera frugiperda) (protein)
chain: T1 sequence (Q0ZIF5 24-587)
kcat/Km (purified protein): 74500 M⁻¹ s⁻¹

From article PMC5668925 (Biochemistry and Biophysics Reports, 2015)
